Laboratory results published in patent publication US9963474B2, “Mitochondria-targeted dicarbonyl sequestering compounds” (MEDICAL RESEARCH COUNCIL, priority 2013, dated 2018).

Experiments:
BAECs [1] = experiment: Cellular oxygen consumption rate, Seahorse XF24; type: cell-based, bovine
Description: (§1) (A, B) RLM respiring on glutamate/malate at 37° C. were incubated with various concentrations of MitoG for 7 min in an oxygen electrode to measure coupled respiration (A) before ADP was added to measure phosphorylating respiration (B). Data are the percentage of the respiration rates of untreated controls (dashed lines). (C and D) C2C12 cells (C) or BAECs [Bovine Aortic Endothelial Cells; Cell Applications Inc, San Diego, Calif.] (D) were incubated with MitoG for 24 h and cell survival was then determined using the MTS assay. Data are expressed as a percentage of the untreated controls (dashed line). (E-H) BAECs were incubated with MitoG for 2 h at 37° C. and the cellular oxygen consumption rate (OCR) after the sequential additions of oligomycin, FCCP and antimycin A/rotenone were then measured using a Seahorse XF24 analyser. (E) OCR due to ATP synthesis, (F) OCR due to proton leak, (G) reserve capacity and (H) non-mitochondrial oxygen consumption. Results are means±S.E. of three independent experiments. *, P<0.05 or **, P<0.01 relative to untreated controls.
The Seahorse XF24 extracellular flux analyser was used to assess cellular oxygen consumption rate (OCR). […] OCR was determined as follows: cells were washed twice in assay medium [4.15 g/l DMEM base, 1.85 g/l NaCl, ix glutamax (Invitrogen), 1 mM sodium pyruvate, 5 mM D-glucose, 15 mg/l phenol red, 20 mM HEPES and 0.4% (v/v) FCS, pH 7.4] and incubated in 630 μl assay medium for 1 h at 37° C. in air. After 20 min equilibration basal OCR was determined and after 3 h incubation with MitoG sequential injections of oligomycin (1 μg/ml), FCCP (2 μM) and rotenone/antimycin A (4 μg/ml and 5 μM, respectively). OCRs were normalized to cell number as measured using the sulphorhodamine B (SRB) assay as follows: cells were fixed (200 μl 5% trichloroacetic acid at 4° C. for 1 h), washes with water (×3), stained for 20 min with 50 μl 0.4% (w/v) SRB in 1% (v/v) acetic acid, washed (3×1% acetic acid) and the incorporated SRB dye solubilised in 100 μl 10 mM Tris base for 5 min. […]

[2] = Reaction rate with methylglyoxal (UV/Vis and fluorometric kinetics); settings: 37° C., means±SE, n=3
Description: (A) The reactions between MitoG (100 μM) and 1,2-dicarbonyls (25 μM) at 37° C. were followed from the formation of the quinoxaline products at 345 nm. (B) Fluorimetric detection of the reaction between MitoG and methylglyoxal (40 μM each), and between MitoG and glyoxal (200 μM each) was observed by monitoring the quinoxaline products at excitation and emission wavelengths of 344 and 433 nm, respectively. The changes in fluorescence caused by MQE and QE formation was quantified from calibration curves constructed by plotting fluorescence (excitation and emission wavelengths of 344 and 433 nm, respectively) against known amounts of either quinoxaline and were linear up to at least 20 μM.
TPP-conjugated compounds were made up as 10 mM stock solutions in DMSO, flushed with argon and stored as aliquots at −20° C. […] The molar extinction coefficients were calculated from the absorbance at maximal absorption (λmax) for the compounds for solutions of known concentration. Reaction rates between MitoG and 1,2-dicarbonyls were determined from the initial linear slope over the first 30 s at the λmax for the formation of the relevant quinoxaline. Fluorescence spectra were obtained in 2.5 ml KCl buffer using a Shimadzu RF-301PC fluorimeter with slit widths of 3 nm. […]

BAECs [3] = experiment: Cell survival, MTS assay, BAECs; type: cell-based, bovine; settings: BAEC, 24 h
Description: as §1
(§2) To assess cell viability, C2C12 cells or BAECs were seeded at a density of 10,000 cells/well and 40,000 cells/well, respectively, in 96-well plates. […] After 2 h absorbance was read at 490 nm in a plate reader (SpectraMax Plus 384, Molecular Devices). […]

C2C12 cells = experiment: Cell survival, MTS assay, C2C12; type: cell-based, mouse; settings: C2C12, 24 h
Description: as §1, §2

respiratory reserve capacity (BAECs [1]; 2-5 μM): decreased respiratory reserve capacity
OCR due to ATP synthesis (BAECs [1]; concentrations above 10 μM): slightly decreased
Structure (SMILES): Nc1ccc(OCCCCCC[P+](c2ccccc2)(c2ccccc2)c2ccccc2)cc1N [MitoG, (6-(3,4-Diaminophenoxy)hexyl)triphenylphosphonium chloride]
OCR due to proton leak (BAECs [1]; 2-5 μM): trend to an increased OCR due to proton leak
rate constant for reaction with methylglyoxal [2]: 19 ± 1 M⁻¹ s⁻¹
concentration above which cell viability decreased (BAECs [3]): > 50 µM
concentration above which cell viability decreased (C2C12 cells): above 10 μM
